According to ChEMBL document CHEMBL1201862, “PubChem BioAssay data set” (2004):
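Results reflect a 48-hour exposure of cells in 96-well plates to compound at five concentrations. At the GI50, growth is halved.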 Activity calls are given as the source filed them. Rule as the data show it: active = GI50 up to about 1.1 µM and inactive = higher.

Key:
Experiment in all cases: growth of human tumour cells (NCI), 48 h
[1] = test system: 786-0
[2] = test system: A498
[3] = test system: A549
[4] = test system: ACHN
[5] = test system: CAKI-1
[6] = test system: CCRF-CEM
[7] = test system: COLO 205
[8] = test system: DLD-1
[9] = test system: DMS-273
[10] = test system: EKVX
[11] = test system: HCC 2998
[12] = test system: HCT-116
[13] = test system: HCT-15
[14] = test system: HL-60
[15] = test system: HOP-18
[16] = test system: HOP-62
[17] = test system: HOP-92
[18] = test system: HT-29
[19] = test system: IGROV-1
[20] = test system: K562
[21] = test system: KM-20L2
[22] = test system: KM12
[23] = test system: LOX IMVI
[24] = test system: LXFL 529
[25] = test system: M14
[26] = test system: M19-MEL
[27] = test system: MOLT-4
[28] = test system: Malme-3M
[29] = test system: NCI-H226
[30] = test system: NCI-H23
[31] = test system: NCI-H460
[32] = test system: NCI-H522
[33] = test system: OVCAR-3
[34] = test system: OVCAR-4
[35] = test system: OVCAR-5
[36] = test system: OVCAR-8
[37] = test system: RPMI-8226
[38] = test system: RXF 393
[39] = test system: RXF 631
[40] = test system: SF-268
[41] = test system: SF-295
[42] = test system: SF-539
[43] = test system: SK-MEL-28
[44] = test system: SK-MEL-2
[45] = test system: SK-MEL-5
[46] = test system: SK-OV-3
[47] = test system: SN12C
[48] = test system: SNB-19
[49] = test system: SNB-75
[50] = test system: SNB-78
[51] = test system: SR
[52] = test system: SW-620
[53] = test system: TK-10
[54] = test system: U-251
[55] = test system: UACC-257
[56] = test system: UACC-62
[57] = test system: UO-31
[58] = test system: XF498
[59] = test system: DMS-114

With C[C@]12CC[C@H](O)CC1=CC[C@@H]1C2CC[C@]2(C)C(=O)N(N)C(=O)CC12 (stereo not given in full) the GI50 [1] was > 100 µM (inactive), the GI50 [2] was > 100 µM (inactive) and the GI50 [3] was > 100 µM (inactive). For the same molecule, the GI50 [4] was > 100 µM (inactive), the GI50 [5] was > 100 µM (inactive) and the GI50 [6] was > 100 µM (inactive). For the same molecule, the GI50 [7] was > 100 µM (inactive), the GI50 [8] was > 100 µM (inactive) and the GI50 [9] was > 100 µM (inactive). For the same molecule, the GI50 [10] was > 100 µM (inactive), the GI50 [11] was > 100 µM (inactive) and the GI50 [12] was > 100 µM (inactive). For the same molecule, the GI50 [13] was greater than 100 µM, the GI50 [14] was > 100 µM (inactive) and the GI50 [15] was > 100 µM (inactive). For the same molecule, the GI50 [16] was > 100 µM (inactive), the GI50 [17] was > 100 µM (inactive) and the GI50 [18] was > 100 µM (inactive). For the same molecule, the GI50 [19] was > 100 µM (inactive), the GI50 [20] was > 100 µM (inactive) and the GI50 [21] was > 100 µM (inactive). For the same molecule, the GI50 [22] was > 100 µM (inactive), the GI50 [23] was > 100 µM (inactive) and the GI50 [24] was > 100 µM (inactive). The GI50 [25] was > 100 µM (inactive), the GI50 [26] was > 100 µM (inactive) and the GI50 [27] was > 100 µM (inactive). For the same molecule, the GI50 [28] was > 100 µM (inactive), the GI50 [29] was > 100 µM (inactive) and the GI50 [30] was > 100 µM (inactive). For the same molecule, the GI50 [31] was > 100 µM (inactive), the GI50 [32] was > 100 µM (inactive) and the GI50 [33] was > 100 µM (inactive). For the same molecule, the GI50 [34] was > 100 µM (inactive), the GI50 [35] was > 100 µM (inactive) and the GI50 [36] was > 100 µM (inactive). The GI50 [37] was > 100 µM (inactive), the GI50 [38] was > 100 µM (inactive) and the GI50 [39] was > 100 µM (inactive). For the same molecule, the GI50 [40] was > 100 µM (inactive), the GI50 [41] was > 100 µM (inactive) and the GI50 [42] was > 100 µM (inactive). The GI50 [43] was > 100 µM (inactive), the GI50 [44] was > 100 µM (inactive) and the GI50 [45] was > 100 µM (inactive). The GI50 [46] was > 100 µM (inactive), the GI50 [47] was > 100 µM (inactive) and the GI50 [48] was > 100 µM (inactive). The GI50 [49] was 5.38 µM (inactive), the GI50 [50] was > 100 µM (inactive) and the GI50 [51] was > 100 µM (inactive). The GI50 [52] was > 100 µM (inactive), the GI50 [53] was > 100 µM (inactive) and the GI50 [54] was > 100 µM (inactive). The GI50 [55] was > 100 µM (inactive), the GI50 [56] was > 100 µM (inactive) and the GI50 [57] was > 100 µM (inactive). The GI50 [58] was > 100 µM (inactive).

CCOC(=O)N[C@@H]1C(CC(=O)OC)O[C@H]2OC(C)(C)O[C@H]21 (stereo not given in full) was tested, and the GI50 [1] was > 100 µM (inactive), the GI50 [2] was > 100 µM (inactive) and the GI50 [3] was > 100 µM (inactive). For the same molecule, the GI50 [4] was > 100 µM (inactive), the GI50 [5] was > 100 µM (inactive) and the GI50 [6] was > 100 µM (inactive). For the same molecule, the GI50 [7] was > 100 µM (inactive), the GI50 [8] was > 100 µM (inactive) and the GI50 [59] was > 100 µM (inactive). The GI50 [9] was > 100 µM (inactive), the GI50 [11] was > 100 µM (inactive) and the GI50 [13] was greater than 100 µM. For the same molecule, the GI50 [14] was > 100 µM (inactive), the GI50 [15] was > 100 µM (inactive) and the GI50 [16] was > 100 µM (inactive). The GI50 [17] was > 100 µM (inactive), the GI50 [18] was > 100 µM (inactive) and the GI50 [19] was > 100 µM (inactive). The GI50 [20] was > 100 µM (inactive), the GI50 [21] was > 100 µM (inactive) and the GI50 [22] was > 100 µM (inactive). The GI50 [23] was > 100 µM (inactive), the GI50 [24] was > 100 µM (inactive) and the GI50 [25] was > 100 µM (inactive). The GI50 [26] was > 100 µM (inactive), the GI50 [27] was > 100 µM (inactive) and the GI50 [28] was > 100 µM (inactive). For the same molecule, the GI50 [29] was > 100 µM (inactive), the GI50 [30] was > 100 µM (inactive) and the GI50 [31] was > 100 µM (inactive). The GI50 [33] was > 100 µM (inactive), the GI50 [34] was > 100 µM (inactive) and the GI50 [35] was > 100 µM (inactive). For the same molecule, the GI50 [37] was > 100 µM (inactive), the GI50 [38] was > 100 µM (inactive) and the GI50 [39] was > 100 µM (inactive). For the same molecule, the GI50 [40] was > 100 µM (inactive), the GI50 [41] was > 100 µM (inactive) and the GI50 [42] was > 100 µM (inactive). The GI50 [43] was > 100 µM (inactive), the GI50 [44] was > 100 µM (inactive) and the GI50 [45] was > 100 µM (inactive). The GI50 [46] was > 100 µM (inactive), the GI50 [47] was > 100 µM (inactive) and the GI50 [49] was > 100 µM (inactive). The GI50 [50] was > 100 µM (inactive), the GI50 [52] was > 100 µM (inactive) and the GI50 [54] was > 100 µM (inactive). For the same molecule, the GI50 [55] was > 100 µM (inactive), the GI50 [56] was > 100 µM (inactive) and the GI50 [57] was > 100 µM (inactive). The GI50 [58] was > 100 µM (inactive).
